Measurements: patent publication US8859549B2, “Potassium channel modulators” (AbbVie, Inc., priority 2011, dated 2014)
pEC50: −log10 of the molar value.

Target: T1, KCNQ 2/3 channels (Homo sapiens, UniProt O43525+O43526)
T1 construct: expressed in transfected cells; host or cells: HEK293
Assay: KCNQ 2/3 channel activation, thallium flux FLIPR assay (BTC-AM dye)
Type: cell-based
Conditions: for Emax: HEK293, maximum response relative to the response of 10 μM retigabine (set at 100%), read-out: % MAX; for pEC50: HEK293 cells stably expressing human KCNQ2 and KCNQ3 subunits, thallium-induced fluorescence, 4 min compound incubation
Experimental: The following example describes the assay that can be used to identify compounds that activate KCNQ 2/3 channels.
HEK293 cells stably expressing human KCNQ2 and KCNQ3 subunits were seeded in 96-well, black-walled, clear-bottomed, poly-D-lysine coated plates (BD Biosciences, Bedford, Mass.) at a density of 1×10^5 cells per well 24 hours before the assay. On the assay day, BTC-AM dye (Invitrogen, Carlsbad, Calif.) was loaded into the cells by replacing the cell culture medium with 55 μL/well of 3 μg/mL dye in DPBS. Dye loading was allowed to proceed for 2 hours at room temperature and then cells were washed twice with 50 μL/well of assay buffer (in mM: 10 HEPES pH 7.3, 5 glucose, 140 Na-gluconate, 2.5 K-gluconate, 3.6 Ca-gluconate, 2 MgSO4, 0.1 Ouabain) to remove unloaded dye. Cells were incubated in 50 μL of assay buffer before loading onto a FLIPR system (Molecular Devices, Sunnyvale, Calif.). Various concentrations of compounds to be assayed were added to the cells in 50 μL of assay buffer and incubated for 4 minutes. The fluorescence signal was initiated by adding 100 μL of assay buffer containing 6 mM TlNO3 and 10 mM K2SO4. Fluors were excited using the 488-nm line of an argon laser and emission was filtered using a 540±30 nm bandpass filter. Fluorescent signals were recorded for 3 minutes. Sums of the responses over basal responses were plotted versus concentrations of test compounds to obtain an EC50 value. The maximum response for each test compound was determined relative to the response produced by 10 μM retigabine. The maximum response of retigabine at 10 μM was set at 100%.

Compound | Emax (HEK293 KCNQ2/KCNQ3 cells) | pEC50 | % MAX (maximum response relative to the response of 10 μM retigabine (set at 100%), HEK293 KCNQ2/KCNQ3 cells)
CC1CN(c2nn(NC(=O)Cc3cc(F)cc(F)c3)c(=O)c3ccccc23)CC(C)O1 (stereo not drawn) [Example 60, 2-(3,5-difluorophenyl)-N-[4-(2,6-dimethylmorpholin-4-yl)-1-oxophthalazin-2(1H)-yl]acetamide] | 105% | 6.32 | –
O=C(Cc1ccc(Cl)c(Cl)c1)Nn1nc(N2CCOCC2)c2ccccc2c1=O [Example 177, 2-(3,4-dichlorophenyl)-N-[4-(morpholin-4-yl)-1-oxophthalazin-2(1H)-yl]acetamide] | 131% | 6.20 | –
O=C(Cc1ccc(Cl)cc1)Nn1nc(-c2ccc(Cl)nc2)c2ccccc2c1=O [Example 5, 2-(4-chlorophenyl)-N-[4-(6-chloropyridin-3-yl)-1-oxophthalazin-2(1H)-yl]acetamide] | 85.2% | 6.33 | –
CC(C)(C)OC(=O)NCc1nn(NC(=O)C[C@@H]2CC[C@H]3C[C@@H]2C3(C)C)c(=O)c2ccccc12 [Example 119, tert-butyl{[3-({[(1S,2S,5S)-6,6-dimethylbicyclo[3.1.1]hept-2-yl]acetyl}amino)-4-oxo-3,4-dihydrophthalazin-1-yl]methyl}carbamate] | 33.9% | – | –
O=C(Cc1cc(F)cc(F)c1)Nn1nc(N2CCCC2)c2ccccc2c1=O [Example 20, 2-(3,5-difluorophenyl)-N-[1-oxo-4-(pyrrolidin-1-yl)phthalazin-2(1H)-yl]acetamide] | 145% | 6.67 | –
O=C(Cc1ccc(Cl)cc1)Nn1nc(Sc2ccccc2)c2ccccc2c1=O [Example 58, 2-(4-chlorophenyl)-N-[1-oxo-4-(phenylsulfanyl)phthalazin-2(1H)-yl]acetamide] | 120% | 7.08 | –
O=C(Cc1ccc2c(c1)OCO2)Nn1nc(N2CCOCC2)c2ccccc2c1=O [Example 174, 2-(1,3-benzodioxol-5-yl)-N-[4-(morpholin-4-yl)-1-oxophthalazin-2(1H)-yl]acetamide] | 18.7% | – | –
CCC(C)(C)OC(=O)NCc1nn(NC(=O)Cc2ccc(Cl)cc2)c(=O)c2ccccc12 [Example 182, 2-methylbutan-2-yl[(3-{[(4-chlorophenyl)acetyl]amino}-4-oxo-3,4-dihydrophthalazin-1-yl)methyl]carbamate] | 63.8% | 5.88 | –
O=C(Cc1cc(F)cc(F)c1)Nn1nc(Sc2ccc(Br)cc2)c2ccccc2c1=O [Example 197, N-{4-[(4-bromophenyl)sulfanyl]-1-oxophthalazin-2(1H)-yl}-2-(3,5-difluorophenyl)acetamide] | 120% | 7.31 | –
O=C(Cc1cccc(F)c1F)Nn1nc(N2CCOCC2)c2ccccc2c1=O [Example 175, 2-(2,3-difluorophenyl)-N-[4-(morpholin-4-yl)-1-oxophthalazin-2(1H)-yl]acetamide] | 17.3% | – | –
CC(C)(C)C(=O)NCc1nn(NC(=O)Cc2ccc(Cl)cc2)c(=O)c2ccccc12 [Example 87, N-[(3-{[(4-chlorophenyl)acetyl]amino}-4-oxo-3,4-dihydrophthalazin-1-yl)methyl]-2,2-dimethylpropanamide] | 89.1% | 5.00 | –
O=C(Cc1cccc(C(F)(F)F)c1)Nn1nc(N2CCOCC2)c2ccccc2c1=O [Example 160, N-[4-(morpholin-4-yl)-1-oxophthalazin-2(1H)-yl]-2-[3-(trifluoromethyl)phenyl]acetamide] | 62.1% | 5.01 | –
CC(C)(C)Sc1nn(NC(=O)Cc2ccc(Cl)cc2)c(=O)c2ccccc12 [Example 198, N-[4-(tert-butylsulfanyl)-1-oxophthalazin-2(1H)-yl]-2-(4-chlorophenyl)acetamide] | 120% | 6.87 | –
O=C(Cc1c(Cl)cccc1Cl)Nn1nc(N2CCOCC2)c2ccccc2c1=O [Example 178, 2-(2,6-dichlorophenyl)-N-[4-(morpholin-4-yl)-1-oxophthalazin-2(1H)-yl]acetamide] | -1.83% | – | –
O=C(Cc1ccc(Cl)cc1)Nn1nc(Cc2ccc(Cl)nc2)c2ccccc2c1=O [Example 32, 2-(4-chlorophenyl)-N-{4-[(6-chloropyridin-3-yl)methyl]-1-oxophthalazin-2(1H)-yl}acetamide] | 46.2% | 6.83 | –

Results, then the compound that gave them:

Emax (HEK293 KCNQ2/KCNQ3 cells) | pEC50 | % MAX (maximum response relative to the response of 10 μM retigabine (set at 100%), HEK293 KCNQ2/KCNQ3 cells) | Compound
82.7% | 5.28 | – | O=C(Cc1cccc(F)c1)Nn1nc(N2CCOCC2)c2ccccc2c1=O [Example 149, 2-(3-fluorophenyl)-N-[4-(morpholin-4-yl)-1-oxophthalazin-2(1H)-yl]acetamide]
145% | 7.84 | – | N#Cc1ccc(S(=O)(=O)c2nn(NC(=O)C[C@H]3C[C@@H]4CC[C@H]3C4)c(=O)c3ccccc23)cc1 (racemic) [Example 219, (±)-2-[(exo)-bicyclo[2.2.1]hept-2-yl]-N-{4-[(4-cyanophenyl)sulfonyl]-1-oxophthalazin-2(1H)-yl}acetamide]
33.6% | 5.04 | – | O=C(Cc1ccc(Cl)cc1)Nn1nc(CNS(=O)(=O)C(F)(F)F)c2ccccc2c1=O [Example 79, 2-(4-chlorophenyl)-N-[1-oxo-4-({[(trifluoromethyl)sulfonyl]amino}methyl)phthalazin-2(1H)-yl]acetamide]
122% | 7.23 | – | O=C(CC1CC2CCC1C2)Nn1nc(Cc2ccc(Cl)nc2)c2ccccc2c1=O (racemic) [Example 30, (±)-2-[(exo)-bicyclo[2.2.1]hept-2-yl]-N-{4-[(6-chloropyridin-3-yl)methyl]-1-oxophthalazin-2(1H)-yl}acetamide]
15.6% | – | – | O=C(Cc1ccc2ccccc2c1)Nn1nc(N2CCOCC2)c2ccccc2c1=O [Example 166, N-[4-(morpholin-4-yl)-1-oxophthalazin-2(1H)-yl]-2-(naphthalen-2-yl)acetamide]
147% | 7.13 | – | O=C(CC1CC2CCC1C2)Nn1nc(S(=O)(=O)Cc2ccccc2)c2ccccc2c1=O (racemic) [Example 217, (±)-N-[4-(benzylsulfonyl)-1-oxophthalazin-2(1H)-yl]-2-[(exo)-bicyclo[2.2.1]hept-2-yl]acetamide]
46.2% | 5.70 | – | CC(C)(C)OC(=O)Nc1ccc(S(=O)(=O)c2nn(NC(=O)Cc3ccc(Cl)cc3)c(=O)c3ccccc23)cc1 [Example 106, tert-butyl{4-[(3-{[(4-chlorophenyl)acetyl]amino}-4-oxo-3,4-dihydrophthalazin-1-yl)sulfonyl]phenyl}carbamate]
133% | 7.22 | – | O=C(CC1CC2CCC1C2)Nn1nc(-c2ccc(Cl)nc2)c2ccccc2c1=O (racemic) [Example 4, (±)-2-[(exo)-bicyclo[2.2.1]hept-2-yl]-N-[4-(6-chloropyridin-3-yl)-1-oxophthalazin-2(1H)-yl]acetamide]
140% | 6.29 | – | O=C(CC1CC2CCC1C2)Nn1nc(C2=CCOCC2)c2ccccc2c1=O (racemic) [Example 6, (±)-2-[(exo)-bicyclo[2.2.1]hept-2-yl]-N-[4-(3,6-dihydro-2H-pyran-4-yl)-1-oxophthalazin-2(1H)-yl]acetamide]
140% | 7.07 | – | O=C(Cc1ccc(Cl)cc1)Nn1nc(N2CCCCC2)c2ccccc2c1=O [Example 24, 2-(4-chlorophenyl)-N-[1-oxo-4-(piperidin-1-yl)phthalazin-2(1H)-yl]acetamide]
149% | 5.86 | – | O=C(CC1CC2CCC1C2)Nn1nc(C(=O)O)c2ccccc2c1=O (racemic) [Example 55, (±)-3-{[(exo)-bicyclo[2.2.1]hept-2-ylacetyl]amino}-4-oxo-3,4-dihydrophthalazine-1-carboxylic acid]
70.7% | 4.76 | – | O=C(Cc1ccccc1)Nn1nc(N2CCOCC2)c2ccccc2c1=O [Example 111, N-[4-(morpholin-4-yl)-1-oxophthalazin-2(1H)-yl]-2-phenylacetamide]
212% | 6.05 | – | O=C(CC1CC2CCC1C2)Nn1nc(C(O)c2ccccc2)c2ccccc2c1=O (racemic) [Example 102, (±)-2-[(exo)-bicyclo[2.2.1]hept-2-yl]-N-{4-[hydroxy(phenyl)methyl]-1-oxophthalazin-2(1H)-yl}acetamide]
172% | 5.09 | – | O=C(CC1CCCO1)Nn1nc(-c2ccnc(Cl)c2)c2ccccc2c1=O (stereo not drawn) [Example 73, N-[4-(2-chloropyridin-4-yl)-1-oxophthalazin-2(1H)-yl]-2-(tetrahydrofuran-2-yl)acetamide]
183% | 6.39 | – | O=C(CC1CC2CCC1C2)Nn1nc(-c2ccc(F)nc2)c2ccccc2c1=O (racemic) [Example 54, (±)-2-[(exo)-bicyclo[2.2.1]hept-2-yl]-N-[4-(6-fluoropyridin-3-yl)-1-oxophthalazin-2(1H)-yl]acetamide]
– | 6.85 | 196% | CC1CN(c2nn(NC(=O)CC3CC4CCC3C4)c(=O)c3ccccc23)CC(C)O1 (racemic) [Example 90, (±)-2-[(exo)-bicyclo[2.2.1]hept-2-yl]-N-{4-[(cis)-2,6-dimethylmorpholin-4-yl]-1-oxophthalazin-2(1H)-yl}acetamide]
